# Patent US20260209152A1, “Substituted Hydroxystilbene Compounds and Derivatives, Synthesis and Uses Thereof” (Kynan Duke IP, LLC, priority 2019, published 2026)
# Like-named read-outs stand apart in the source and are kept apart here.
# Columns and labels:
# [1] = tested on: CCL2 release from IL-4, IL-13, IL-22 and IFN-γ-stimulated primary human keratinocytes; assay: Keratinocyte CCL2 release (LEO Pharma Open Innovation assay number 1280); format: cell-based; details: for EC50 / Emax: Homo sapiens, Keratinocyte; for Max Eff.: CCL2 (1280): highest effect as percentage of control maximum effect; for Emax: read-out: maximum efficacy, CCL2 secretion
# Procedure: Inhibition of CCL2 release from IL-4, IL-13, IL-22 and IFN-γ-stimulated primary human keratinocytes LEO Pharma Open Innovation assay number 1280
# The inflammatory skin disease atopic dermatitis (AD) is characterized by the T-cell cytokines including IL-4, IL-13, IL-22 and IFN-γ. In the present assay, keratinocytes are stimulated with a mixture of these cytokines, and the release of CCL2 (also called monocyte chemoattractant protein 1 (MCP-1)) is measured in the culture supernatant by proximity homogenous time-resolved fluorescence (HTRF). […] Compound which inhibit keratinocyte CCL2 secretion may be expected to have efficacy in atopic dermatitis.
# HEKa are human epidermal keratinocytes isolated from adult skin. The cells have been cryopreserved at the end of the primary culture stage in a medium containing 10% DMSO. Sterile cell culture work applies.
# • Trypsinize the cells as described above. • Resuspend pellet in 10 ml assay medium (EpiLife Medium with HKGS Kit but without hydrocortisone) • Filter the cells though a 37 µm strainer. • Count cells using a cell counter. • Seed HEKa cells in 384-well view plates 3500 c/w/40 μL. • Place the plates with lids on in a humidity chamber with lid (24.5×24.5 cm box added H2O in the bottom). • Incubate plates over night at 37° C., 5% CO2/95% air
# • Prepare compound-containing source plate, i.e. titrations in DMSO to be transferred to the assay plate. • Add 80 nL compounds and controls from the source plate to the assay plate (with cells). • Add 40 μL stimulation (recombinant human interleukin (IL) 4, 13, 22 at 10 ng/mL and Interferon-gamma at 1 ng/mL) in medium with supplement, but without hydrocortisone. • Incubate plates at 37° C., 5% CO2/95% air for 2 days.
# • Remove plates from incubation and equilibrate to room temperature for 30 minutes. • Transfer […] supernatant to white proxi 384-well plates for CCL2 detection. • Add […] media to the detection plate. • Add […] CCL2 HTRF detection reagent (to the white proxi 384w). • Seal and incubate for 4 hours and read in a plate reader.
# (§1) CCL2 concentration in the supernatants is measured using homogeneous time-resolved fluorescence resonance (TR-FRET). The assay is quantified by measuring fluorescence at 665 nm (proportional to CCL2 concentration) and 620 nm (control). A ratio 665/620*1000 is calculated.
# [2] = tested on: IL-4 secretion from human CD4-positive T-cells stimulated with antiCD2/antiCD3/antiCD28-coated beads; assay: T-cell IL-4 assay (assay number 1297, 1298); format: cell-based; details: for Max Eff.: IL-4 (1298): highest effect as percentage of control maximum effect; for Emax: read-out: maximum efficacy, IL-4 secretion
# Procedure: Inhibition of IL-4 and IL-2 secretion from human CD4-positive T-cells stimulated with antiCD2/antiCD3/antiCD28-coated beads. LEO Pharma Open Innovation assay number 1297, 1298, 1299.
# The inflammatory skin disease atopic dermatitis is characterized by the T-cell cytokines IL-4, IL-13 and IL-22. In the present assay, human T-cells are stimulated with beads coated with antibodies against CD2, CD3 and CD28 to activate the T-cell receptor.
# Then the level of secreted of IL-4 is measured in the culture supernatant using electrochemiluminescence (MSD kits, Meso Scale Discovery), IL-2 is measured by proximity homogenous time-resolved fluorescence (HTRF) and the amount of living cells is measured by addition of resazurin (PrestoBlue®) to allow identifying compounds that inhibit T-cell proliferation or viability.
# • Peripheral blood mononuclear cells (PBMC) are isolated from fresh human buffy coats by centrifugation on Lymphoprep® following instructions from Sebmate™ (Stemcell). • The cells are resuspended in 30 ml of PBS+2% Serum and counted. • CD4 positive T-cells are isolated from freshly isolated PBMC using EasySep™ humane CD4+ T-cell Isolation Kit (Catalog #17952) and following the manufacturer's protocol. • Cells are spun down and resuspended in freezing medium (X-vivo 15+10% FBS+5% DMSO) • Cells are frozen in aliquots of 3×10^7 cells/vial matching one 384 plate. Cells are place in Coolcell box and place in −80° C. freezer for one day then transferred to the −150° C. freezer in a prechilled box.
# • Prepare assay medium: 500 ml X-Vivo 15+5 ml Glutamax (2 mM final)+5 ml pen/strep (100 U/ml final). • Add 5 μL medium to the wells of a 384 well plate (Greiner cat. No 788986). • CD4+ Cells: Thaw frozen cells from −150° C. freezer in 37° C. bath, and pipette the cells into 10 ml medium. Spin 10 min @170 g. • Resuspend pellet in 3.5 ml per 2.5×10^7 cells and add 10 μL per well to the plate (40000 cells/well) • Test compounds: Prepare compound-containing source plate, i.e. titrations in DMSO to be transferred to the assay plate. • Add 25 nL compounds and controls from the source plate to the assay plate (with cells). • Beads (T Cell Activation/Expansion Kit-human, Miltenyi Biotech, cat. no. 130-091-441): Coat beads with antibodies according to the kit procedure. • Add 10 μL beads to each well except for the negative controls. One bead per cell. Add 10 μL medium to the negative controls. • Incubate plates at 37° C., 5% CO2/95% air for 2 days.
# • Remove plates from incubation and equilibrate to room temperature for 30 minutes. • IL-4 concentration in 10 μL supernatant is measured using an MSD IL-4 384-plate kit (Custom made) according to manufacturer protocol. • IL-2 concentrations in the supernatant is measured by an IL-2 HTRF kit, CisBio, cat. No 62HIL02PEH. • Add 4 μL medium to white proxi 384-well plates • Add 1 μL supernatant. • Add 4 μL mHTRF mix (each diluted 1:300 in ⅔ reconstitution buffer and ⅓ assay medium). • Spin the plates for 1 minute at 170 g • Seal and incubate overnight and read fluorescence in a plate reader • The amount of viable cells is measured by PrestoBlue® reagent • Add 15 μL diluted PrestoBlue® reagent (resazurin) corresponding to 2.5 μL Prestoblue/well to the assay plate. • Incubate overnight at 37° C./5% CO2. The fluorescence in the wells is measured (Ex615/Em 535).
# as §1, with “IL-4 concentration in the supernatants is measured using electrochemiluminescence (MSD kits, Meso Scale Discovery). IL-2 concentration” for “CCL2 concentration”, “to IL-2” for “to CCL2”
# The capacity of the test compound to inhibit IL-4 and IL-2 release is normalized to the signal in the negative control wells with un-stimulated T-cells.
# [3] = half maximal effective concentration relative to control, inhibition of CCL2 release, keratinocytes, read-out: Abs EC50: CCL2 (1280)
# [4] = inhibition of IL-4 secretion, human CD4-positive T-cells, read-out: Abs EC50: IL-4 (1298)
# [5] = read-out: EC50, inhibition of keratinocyte CCL2 secretion
# [6] = Homo sapiens, CD4 positive, read-out: EC50, inhibition of IL-4 secretion
SMILES,"EC50 [1, 3] [nM]","EC50 [2, 4] [nM]",Max Eff.: CCL2 (1280) [1] [%],Max Eff.: IL-4 (1298) [2] [%],"EC50 [1, 5] [nM]",Emax [1] [%],"EC50 [2, 6] [nM]","Emax ([2]; Homo sapiens, CD4 positive) [%]","reduction of CCL2 release, in words [1]","effect on IL-4 release, in words [2]"
"COc1cc(/C=C/c2cc(O)cc(OC)c2CC=C(C)C)ccc1O [Compound 1, (E)-3-(4-hydroxy-3-methoxystyryl)-5-methoxy-4-(3-methylbut-2-en-1-yl)phenol]",123,2930,101,70,,,,,,
"CCOc1cc(O)cc(/C=C/c2ccc(O)c(OC)c2)c1CC=C(C)C [Compound 8, (E)-3-Ethoxy-5-(4-hydroxy-3-methoxystyryl)-4-(3-methylbut-2-en-1-yl)phenol]",50,503,102,82,,,,,,
"CCOc1cc(O)cc(/C=C/c2ccc(O)c(O)c2)c1CC=C(C)C [Compound 20, (E)-4-(3-Ethoxy-5-hydroxy-2-(3-methylbut-2-en-1-yl)styryl)benzene-1,2-diol]",108,5000,99,54,,,,,,
"COc1cc(/C=C/c2cc(O)cc(OC)c2CC=C(C)C)ccc1NC=O [Compound 27, (E)-N-(4-(5-hydroxy-3-methoxy-2-(3-methylbut-2-en-1-yl)styryl)-2-methoxyphenyl)formamide]",32,507,100,79,32,100,507,79,,

# Second part, led by results:
"EC50 [1, 3] [nM]","EC50 [2, 4] [nM]",SMILES,Max Eff.: CCL2 (1280) [1] [%],Max Eff.: IL-4 (1298) [2] [%],"EC50 [1, 5] [nM]",Emax [1] [%],"EC50 [2, 6] [nM]","Emax ([2]; Homo sapiens, CD4 positive) [%]","reduction of CCL2 release, in words [1]","effect on IL-4 release, in words [2]"
40,278,"CCOc1cc(O)cc(/C=C/c2ccc(NC=O)c(OC)c2)c1CC=C(C)C [Compound 28, (E)-N-(4-(3-Ethoxy-5-hydroxy-2-(3-methylbut-2-en-1-yl)styryl)-2-methoxyphenyl)formamide]",100,80,40,100,278,80,medium potency reduction of CCL2 release,medium potency effect
445,5000,"COc1cc(/C=C/c2cc(O)cc(OC)c2CC=C(C)C)ccc1NC(=O)CN [Compound 31, (E)-2-amino-N-(4-(5-hydroxy-3-methoxy-2-(3-methylbut-2-en-1-yl)styryl)-2-methoxyphenyl)acetamide]",100,29,,,,,,
1130,5000,"CCOc1cc(O)cc(/C=C/c2ccc(NC(=O)C(=O)O)c(OC)c2)c1CC=C(C)C [Compound 35, (E)-2-((4-(3-Ethoxy-5-hydroxy-2-(3-methylbut-2-en-1-yl)styryl)-2-methoxyphenyl)amino)-2-oxoacetic acid]",79,11,,,,,,
